# Results: patent US20020068692A1, “Method for the treatment of neurological or neuropsychiatric disorders” (priority 1996, published 2002)
# Tests used:
# [1] = system: 6-OHDA treated rats; test: Melatonin antagonist therapy in the 6-OHDA rat model (12 hr light/12 hr dark); format: in vivo
# Description: (§1) After several days of control observations, animals were injected bilaterally with 2 μl of an 8 μg/μl solution of 6-OHDA. Body weight was measured each day just after the onset of the light cycle and motor performance was measured by assessing the performance of animals in the open field and on three tests routinely used to assess motor function. Open field activity was measured in a PVC box fitted with infrared sensors. The number of beams broken during a 10 minute test period was registered. The three reflex tests employed were latency to retract a limb elevated 25 cm above the surface of the test area, latency to step up or down from a raised platform when the rear torso was elevated 30 cm above the test area surface and latency to step outside a prescribed area.
# The compound ML-23 was tested in the 6-OHDA model described in Example 1 using a 12 hr light/12 hr dark cycle. Briefly, animals were subject to 13 days controlled observation, on day 14 they were injected with 6-OHDA. Animals in the treatment group were given melatonin antagonist (ML-23 in DMSO (3 mg per mL)) therapy (3 mg/kg/ml, interperitoneal injection (ip)) once on the day of 6-OHDA injection and then twice daily for the 3 subsequent days.
# A second melatonin antagonist, S-20928, was tested in the 6-OHDA model described in Examples 1 and 7.
# [2] = system: rats receiving intraperitoneal injections of MPTP; test: Intracerebroventricular melatonin implants in the MPTP rat model; format: in vivo
# Description: The rats were implanted with intracerebral melatonin pellets or inert nylon as described in Example 3 with the exception that they were not implanted with intrahypothalamic cannulae. After the control performance was assessed, all animals received intraperitoneal injections of MPTP on day 4 (7 mg/kg/i.p.). Given that the effects of MPTP are less prolonged and traumatic than 6-OHDA, this provided an opportunity to study the phenomenon of recovery. Body weight was measured daily and motor performance was measured 1 h and 2 days after injection.
# [3] = system: patients suffering from Parkinson's disease; details: cited from earlier work
# [4] = system: rats receiving intracerebral injections of 6-OHDA; test: Intracerebroventricular melatonin implants in the 6-OHDA rat model; format: in vivo
# Description: as §1
# In order to produce a sustained central release of melatonin, Regulin® pellets were implanted into the left cerebral ventricle of rats at the time of cannulation of the posterior, lateral hypothalamus (PLH). Control rats were implanted with inert nylon pellets of the same dimensions. […] Animals were cannulated and tested as described in Example 1.
# [5] = system: marmosets made Parkinsonian with the neurotoxin MPTP; test: Oral ML-23 in marmosets made Parkinsonian with MPTP (blinded experiment); format: in vivo
# Description: The ML-23 formulation was prepared by dissolving ML-23 in 100% DSMO (dimethylsulfoxide 0.7 ml) and then making up to volume (2.3 ml) with soy bean oil for oral administration.
# [6] = system: patient with Parkinson's disease; test: Bright light therapy plus oral atenolol in patients with Parkinson's disease; format: in vivo, human
# Description: One patient, diagnosed 3 years earlier with Parkinson's disease, was exposed to bright light therapy (1500 lux) for two, 1 hour sessions per day, one before retiring and one immediately upon arising to antagonize melatonin secretion. This patient was also prescribed 50 mg of the β-noradrenergic antagonist, Atenolol, before going to bed. The patient's performance on motor tests and their body weight were measured before treatment commenced and 2 weeks later. A second patient, diagnosed with Parkinson's disease at least 10 years previously, was tested on the same tests as the first patient.
# [7] = ML-23 3 mg/kg ip, once on day of 6-OHDA then twice daily for 3 days
compound,measurement,setting,value
O=C(NCCc1cccc2ccccc12)C1CCC1 [S-20928],body weight (most resilient consequence of DA degeneration),[1]; S-20928 1 mg/kg ip,capable of repairing
same,morbidity of the disease,[1]; S-20928 1 mg/kg ip,decreases the morbidity of the disease
same,survival time,[1]; S-20928 1 mg/kg ip,increases survival time
COc1ccc2[nH]cc(CCNC(C)=O)c2c1 [melatonin],body weight gain,"[2]; melatonin implants vs nylon, MPTP 7 mg/kg i.p. on day 4, p=0.0201, FIG. 22A/B",did not gain as much weight
same,"ability to step, assessed during the night","[2]; melatonin implants vs nylon, p=0.0238, FIG. 24",significant decrement in the ability to step
same,motor impairment after MPTP (open field locomotion),"[2]; melatonin pellets vs nylon, overall performance p=0.0344, night trend p=0.0638, FIG. 23A/B",increased the motor impairment
same,amelioration of the clinical features of Parkinson's disease,"[3]; daily doses of 1000-1200 mg of melatonin per day, ref (18)",20-36%
same,tremor,"[3]; daily doses of 1000-1200 mg of melatonin per day, ref (19)",significant reduction in tremor
same,"cardinal features of Parkinson's disease, replication study","[3]; similar doses over the same time period, ref (20)",did not improve the cardinal features
same,reduction in open field performance relative to animals implanted with inert nylon,[4]; melatonin implants after 6-OHDA,more than twice as much
same,loss of body weight after 6-OHDA,"[4]; melatonin implants vs nylon implants, day 16 to end of experiment, p=0.0143, FIG. 14",more severe loss of body weight
same,overall change in open field performance and that during the test session,"[4]; melatonin implants vs nylon implants, p=0.0022, FIGS. 15A and B",significantly worse
same,"performance on the 3 motor tests (limb retraction, step, ambulate)","[4]; melatonin implants vs nylon, FIGS. 16-18",slower than the animals implanted with nylon although not significant
COc1ccc2c(c1)C(CCNc1cccc([N+](=O)[O-])c1[N+](=O)[O-])CN2 (stereo not shown) [ML-23],number of changes in head movement,"[5]; ML-23 oral 5 mg/kg twice daily for 52 days, vehicle 9.5, p=0.006",19.8
same,horizontal movement at night,"[5]; ML-23 oral 5 mg/kg twice daily for 52 days, vehicle 35 counts, p=0.01",80 counts per 30 minutes
same,vertical movement,"[5]; ML-23 oral 5 mg/kg twice daily for 52 days, vehicle 308, p-0.01",594 per 30 minutes
same,intake of dry food,"[5]; ML-23 oral, vehicle 1 gram per day, p=0.0001",3 grams per day
same,"psychotic features score (agitation, frantic non-regulatory biting, vocalization, obstinate progression)","[5]; positive symptoms 48 hours after MPTP treatment, oral ML-23, vehicle score=10, p=0.0005",2.5
same,overall clinical rating of Parkinsonian behavior,"[5]; scale 0= normal to 20= severely Parkinsonian, ML-23 oral 5 mg/kg twice daily, vehicle 8.4, p-0.006",1.4
same,"horizontal and vertical movement, particularly at night",[1]; ML-23 3 mg/kg ip,significantly improved
same,overall performance versus vehicle following 6-ODHA injection,[1]; ML-23 3 mg/kg ip,performed better than those treated with vehicle
same,body weight loss,[1]; [7],prevented the severe body weight loss
same,development of severe motor impairment,[1]; [7],prevented the development of severe motor impairment
same,survival / recovery,"[1]; ML-23 3 mg/kg ip, 3 out of 7 animals in the 6-ODHA/vehicle group died within 6 days",all rats treated with ML-23 recovered
same,"latency to perform the 3 motor tests (retract a limb, step, ambulate)","[1]; ML-23 3 mg/kg ip, test and recovery periods",improved
CC(C)NCC(O)COc1ccc(CC(N)=O)cc1 (stereo not shown) [Atenolol],time taken to walk a 3 meter path and return,"[6]; first patient, after 2 weeks of bright light (1500 lux, two 1 hour sessions per day) plus Atenolol 50 mg, 31.3 seconds before treatment",13.5 s
same,gain in body weight,"[6]; first patient, after 2 weeks of treatment",3 kilos
same,tremor and rigidity,"[6]; first patient, after treatment",improved
same,memory loss and mental state,"[6]; first patient, after treatment, permitted a decrease of daily 1-dopa dose",improved
same,time taken to lift foot to knee and return it to the floor 10 times,"[6]; first patient, either leg, two weeks after treatment, 58 s (R) 65 s (L) before treatment",44 s
same,latency to touch knee with foot and return to the floor 10 times,"[6]; second patient, bright light (1000 lux) 1 hour morning and night plus Atenolal 50 mg, after 5 weeks of treatment, FIG. 26",improved dramatically
